Experimental data as given in patent US20060282906A1, “Non-transgenic rodent model of Alzheimer's disease” (priority 2005, published 2006).

Columns and labels:
Male Wistar rats [1] = assay: Immunohistochemistry of rat brain sections, grading scale of staining size and intensity; type: in vivo; parameters: key to NKκB(p65) immunostaining signal / COX-2 immunostaining signal / GFAP immunostaining signal / OX-6 immunostaining signal / APP immunostaining signal / Tau-2 immunostaining signal / TNFα immunostaining signal / Cas-3 immunostaining signal: n.s.: no positive staining; +: moderate immunostaining signal; ++: strong immunostaining signal; +++: strongest immunostaining signal
Description: (§2) All rats were anesthetized using 40 mg/kg of pentobarbital (Somnotol; MTC Pharmaceuticals, Cambridge, Ontario) intraperitoneally. Body temperature was maintained at 37° C. Aβ(25-35) (50 nmol in 10 μL of saline) was injected bilaterally into the lateral ventricles. Aβ(25-35) was prepared according to established methods (Sigurdsson, et al. (1997) supra). Aβ(25-35) (50 nmol in 10 μL of saline at a rate of 1 μL/minute) was injected bilaterally into the lateral ventricles via a stainless-steel cannula (23-gauge; anterior/posterior −0.8, medial/lateral ±1.4, and dorsal/ventral −4.0 below dura). Two endothelin injections (6 pmol in 3 μL of saline), 1 mm apart, were made into the right striatum (Sigurdsson, et al. (1997) supra). Sham procedures involved all the surgical steps without injections of Aβ(25-35) or endothelin. After wound suture, all rats received 40 mg/kg of buprenorphine intramuscularly and were allowed to recover from surgery for 7 days.
(§3) Twenty-one days after surgery, all animals were euthanized via pentobarbital overdose and perfused transaortically first with saline followed by 4% formaldehyde (pH 7.4). The brains were removed and cryoprotected in 30% sucrose for 36 hours at 4° C. Coronal sections (30 pm) were cut using a cryostat.
(§4) Free-floating sections from rat brains (n=5 for each group) were treated with 0.03% hydrogen peroxide and blocked with 3 mL of horse or rabbit serum (VECTASTAIN® Elite, Vector Laboratories, Burlingame, Calif.). The following primary antibodies were diluted in filtered phosphate-buffered saline: APPa4 mouse monoclonal (Chemicon International Inc, Temecula, Calif.; 1:1000), GFAP mouse monoclonal (Sigma-Aldrich, St Louis, Mo.; 1:1000), OX-6 mouse monoclonal (Serotec, Inc., Raleigh, N.C.; 1:1000), Tau-2 mouse monoclonal (Sigma-Aldrich, St Louis, Mo.; 1:10000), NFκB(p65) goat polyclonal (Santa Cruz Biotechnologies, Santa Cruz, Calif.; 1:1000), IL-1β goat polyclonal (Santa Cruz Biotechnologies, Santa Cruz, Calif.; 1:1000), and TNF-α-M18 goat polyclonal (Santa Cruz Biotechnologies, Santa Cruz, Calif.; 1:1000). APP-, Tau-2-, GFAP-, and OX-6-stained sections were incubated with 3 mL of horse biotinylated anti-mouse secondary antibody and horse serum. NFκB(p65), IL-1β, and TNF-α-stained sections were incubated with 3 mL of biotinylated rabbit anti-goat secondary antibody and rabbit serum. Sections were then incubated in 3 mL of avidin-biotin complex followed by 0.05% diaminobenzidine. Sections were washed, air-dried, cleared in xylene, and cover-slipped. Brains to be compared were processed at the same time using the same solutions to reduce variability in immunostaining caused by separate processing.
(§5) Digital photographs were taken using a light microscope (Leitz Diaplan). An investigator was blinded to the identification of the rat sections while analysis was being performed. All immunohistochemical data that were compared was processed at the same time to reduce any variation caused by differences of intensity. A grading scale was based on both observable size and intensity of staining (n=5 for each group). Also, relative optical density measurements and numbers of stained cells or accumulations were measured in entire brain areas for quantitative analysis and statistically analyzed with ANOVA and Tukey post hoc test with a significance level of P<0.05.

Male Wistar rats [2] = assay: Congo Red histochemistry of rat brain sections; type: in vivo; details: Aβ: lesions in fornix, anterior hippocampus, CA1 hippocampus; endothelin: infarct
Description: (§1) Male Wistar rats (250 to 300 grams; Charles River, Montreal, Quebec) were divided into 4 groups: intracerebroventricular injections of Aβ(25-35) (BACHEM, Torrance, Calif.); endothelin injections into the right striatum; both Aβ(25-35) and striatal endothelin injections; and sham procedures. The Aβ(25-35) fragment was used to reduce the possibility of rapid coagulation and to allow diffusion of the peptide into the brain.
All rats were anesthetized using 40 mg/kg of pentobarbital (Somnotol; MTC Pharmaceuticals, Cambridge, Ontario) intraperitoneally. Body temperature was maintained at 37° C. Aβ(25-35) (50 nmol in 10 μL of saline) was injected bilaterally into the lateral ventricles. Aβ(25-35) was prepared according to established methods (Sigurdsson, et al. (1997) supra). Aβ(25-35) (50 nmol in 10 μL of saline at a rate of 1 μL/minute) was injected bilaterally into the lateral ventricles via a stainless-steel cannula (23-gauge; anterior/posterior −0.8, medial/lateral ±1.4, and dorsal/ventral −4.0 below dura). Two endothelin injections (6 pmol in 3 μL of saline), 1 mm apart, were made into the right striatum (Sigurdsson, et al. (1997) supra). Sham procedures involved all the surgical steps without injections of Aβ(25-35) or endothelin. After wound suture, all rats received […] of buprenorphine intramuscularly and were allowed to recover from surgery for 7 days. […]

Male Wistar rats [3] = assay: Montoya staircase test; type: in vivo, rat; details: mean±SEM
Description: as §1
All rats were anesthetized using 40 mg/kg of pentobarbital (Somnotol; MTC Pharmaceuticals, Cambridge, Ontario) intraperitoneally. Body temperature was maintained at 37° C. Aβ(25-35) (50 nmol in 10 μL of saline) was injected bilaterally into the lateral ventricles. Aβ(25-35) was prepared according to established methods (Sigurdsson, et al. (1997) supra). Aβ(25-35) (50 nmol in 10 μL of saline at a rate of 1 μL/minute) was injected bilaterally into the lateral ventricles via a stainless-steel cannula (23-gauge; anterior/posterior −0.8, medial/lateral ±1.4, and dorsal/ventral −4.0 below dura). Two endothelin injections (6 pmol in 3 μL of saline), 1 mm apart, were made into the right striatum (Sigurdsson, et al. (1997) supra). Sham procedures involved all the surgical steps without injections of Aβ(25-35) or endothelin. After wound suture, all rats received […] of buprenorphine intramuscularly and were allowed to recover from surgery for 7 days.
For training (n=10 for each group), rats were placed into the Montoya staircase apparatus (Montoya, et al. (1991) supra) at the same time every day for 8 days (days −8 through −1) and were allowed to perform the test for 20 minutes. Rats were food-deprived for 1 day (day −9) before testing, as well as on day −8. On days −7 though −1, rats were fed 10 grams of their normal chow so that they maintained their body weight at ˜85%. Three NOYES LAB ANIMAL PRECISION FOOD PELLETS™ (Research Diets, Inc., New Brunswick, N.J.) were placed in each of the 14 wells (7 on each side). Pellets eaten were recorded from each well. Re-testing trials, which were performed 7 days after the surgical procedures (day 0), were performed for 8 days in the same way as the training trials (days 8 through 15).
Digital photographs were taken using a light microscope (Leitz Diaplan). An investigator was blinded to the identification of the rat sections while analysis was being performed. […] Also, relative optical density measurements and numbers of stained cells or accumulations were measured in entire brain areas for quantitative analysis and statistically analyzed with ANOVA and Tukey post hoc test with a significance level of P<0.05. […] The staircase data are expressed as the mean±SEM. […] Data are expressed as mean±SEM. […]

Male Wistar rats [4] = assay: Quantitative immunohistochemistry: relative optical density and numbers of stained cells or accumulations; type: in vivo, rat; details: for APP Accumulation / GFAP Intensity / OX6 Intensity: vehicle (not in brackets), mean ± SEM, n = 4
Description: as §2, §3, §4, §5

CC[C@H](C)[C@H](NC(=O)[C@H](CC(=O)O)NC(=O)[C@H](CC(C)C)NC(=O)[C@H](Cc1c[nH]cn1)NC(=O)[C@@H]1CSSC[C@H](N)C(=O)N[C@@H](CO)C(=O)N[C@H]2CSSC[C@H](NC(=O)[C@H](CCC(=O)O)NC(=O)[C@H](CCCCN)NC(=O)[C@H](CC(=O)O)NC(=O)[C@H](CCSC)NC(=O)[C@H](CC(C)C)NC(=O)[C@H](CO)NC(=O)[C@H](CO)NC2=O)C(=O)N[C@@H](C(C)C)C(=O)N[C@@H](Cc2ccc(O)cc2)C(=O)N[C@@H](Cc2ccccc2)C(=O)N1)C(=O)N[C@H](C(=O)N[C@@H](Cc1c[nH]c2ccccc12)C(=O)O)[C@@H](C)CC [Endothelin]
APP immunostaining signal (Male Wistar rats [1]; Corpus Callosum): n.s. | COX-2 immunostaining signal (Male Wistar rats [1]; Corpus Callosum): n.s. | GFAP immunostaining signal (Male Wistar rats [1]; Corpus Callosum): + | NKκB(p65) immunostaining signal (Male Wistar rats [1]; Corpus Callosum): n.s. | OX-6 immunostaining signal (Male Wistar rats [1]; Corpus Callosum): n.s. | TNFα immunostaining signal (Male Wistar rats [1]; Corpus Callosum): n.s. | Tau-2 immunostaining signal (Male Wistar rats [1]; Corpus Callosum): n.s. | APP immunostaining signal (Male Wistar rats [1]; Cortex): n.s. | COX-2 immunostaining signal (Male Wistar rats [1]; Cortex): n.s. | GFAP immunostaining signal (Male Wistar rats [1]; Cortex): + | NKκB(p65) immunostaining signal (Male Wistar rats [1]; Cortex): n.s. | OX-6 immunostaining signal (Male Wistar rats [1]; Cortex): n.s. | TNFα immunostaining signal (Male Wistar rats [1]; Cortex): n.s. | Tau-2 immunostaining signal (Male Wistar rats [1]; Cortex): n.s. | APP immunostaining signal (Male Wistar rats [1]; Hippocampus): n.s. | COX-2 immunostaining signal (Male Wistar rats [1]; Hippocampus): n.s. | GFAP immunostaining signal (Male Wistar rats [1]; Hippocampus): + | NKκB(p65) immunostaining signal (Male Wistar rats [1]; Hippocampus): n.s. | OX-6 immunostaining signal (Male Wistar rats [1]; Hippocampus): n.s. | Tau-2 immunostaining signal (Male Wistar rats [1]; Hippocampus): n.s. | APP immunostaining signal (Male Wistar rats [1]; Hypothalamus): n.s. | NKκB(p65) immunostaining signal (Male Wistar rats [1]; Hypothalamus): n.s. | TNFα immunostaining signal (Male Wistar rats [1]; Hypothalamus): n.s. | APP immunostaining signal (Male Wistar rats [1]; Striatum (right)): + | COX-2 immunostaining signal (Male Wistar rats [1]; Striatum (right)): + | Cas-3 immunostaining signal (Male Wistar rats [1]; Striatum (right)): + | GFAP immunostaining signal (Male Wistar rats [1]; Striatum (right)): ++ | NKκB(p65) immunostaining signal (Male Wistar rats [1]; Striatum (right)): + | OX-6 immunostaining signal (Male Wistar rats [1]; Striatum (right)): ++ | TNFα immunostaining signal (Male Wistar rats [1]; Striatum (right)): + | OX-6 immunostaining signal (Male Wistar rats [1]; Thalamus (right)): + | TNFα immunostaining signal (Male Wistar rats [1]; Thalamus (right)): + | Tau-2 immunostaining (Male Wistar rats [1]; region of ischemic damage (right striatum)): Increases | IL-1β immunostaining (Male Wistar rats [1]; region of the infarct, punctate appearance): Increases | Congo Red staining (Male Wistar rats [2]): stained positively for Congo Red | Staircase test performance, contralateral paw (Male Wistar rats [3]; day 8 (first day of re-testing)): 66±15 % of pretreatment | Staircase test performance, ipsilateral paw (Male Wistar rats [3]; during the post-treatment phase): 143±18 % of pretreatment | average numbers of OX-6-stained microglia (Male Wistar rats [4]; CA1 of the hippocampus): 4.8±0.9 | Average intensity measurements for GFAP (Male Wistar rats [4]; Hippocampus): 152.9±11.0 | APP Accumulation (Male Wistar rats [4]; Left Cortex): 7.4 ± 1.4 | GFAP Intensity (Male Wistar rats [4]; Left Hippocampus): 152.1 ± 4.1 | OX6 Intensity (Male Wistar rats [4]; Left Hippocampus): 104.2 ± 3.5 | APP Accumulation (Male Wistar rats [4]; Right Cortex): 13.8 ± 1.9 | GFAP Intensity (Male Wistar rats [4]; Right Hippocampus): 166.0 ± 3.8 | OX6 Intensity (Male Wistar rats [4]; Right Hippocampus): 116.2 ± 2.9
